The assay has as its system drug-resistant Mycobacterium tuberculosis. The following applies: Mycobacterium tuberculosis resistant against PAS, streptomycin and isoniazid; Middlebrook 7H12, seven days; peptide 10 micrograms per ml.

Where no end group is shown, it is not given here.

For MQMKKVLDS-OH [AIP-1], the “% inhibition” value came out at 100.0%.

The % inhibition is the relative decrease from the control value, in per cent.

Values taken from US20100234306A1, “USE OF A PEPTIDE AS A THERAPEUTIC AGENT” (priority 2007, published 2010).
